{"source": "patent US7414107B2", "about": "“Pharmacologically active peptide conjugates having a reduced tendency towards enzymatic hydrolysis” (priority 1998, dated 2008)", "key": {"[1]": {"tested_on": "vas deferens", "conditions": "read-out: EC50 value; half maximal inhibition of electrically-induced contraction, mouse vas deferens", "procedure": "In short: vasa deferentia were isolated from male mice weighing 20-30 g (Mellegaard breeding, DK) and suspended through two electrodes in 10 ml baths at resting tension of 1 g. […] The tissues were stimulated electrically (70 V, 1 ms duration; 0.1 Hz) and contractions were recorded isometrically on a chart recorder. After equilibration of the tissue for at least 20 min, drugs were added in the bath and the maximum effects were measured.\nPrior to addition of the plasma sample, a standard dose-response curve was generated in each preparation in order to express the inhibitory activity as concentration of each test substance. Thus, the calculated concentration is a reflection of inhibitory activity in the vas deferens bioassay preparation.\nWhere initial=initial […] contraction force prior to addition of test substance; conc=concentration of test substance; EC50=concentration of test substance that […] produced half maximal inhibition of electrically-induced contraction; background=contraction force during maximal relaxation."}, "[2]": {"experiment": "Solubility (remark)"}}, "note": "Where no end group is shown, it is not given here."}
{"sequence": "YGGFLEEEEEE [Leu-Enkephalin-(Glu)6-OH, H-Tyr-Gly-Gly-Phe-Leu-Glu6-OH]", "values": [{"measurement": "EC50", "setting": "[1]", "result": 140, "unit": "nM"}, {"measurement": "solubility", "setting": "[2]", "result": "very low solubility"}]}
